Values joined by “and” are separate entries in the source; they are usually repeats but may differ in a detail not shown here. Identical values can stand only once. Like-named read-outs stand apart in the source and are kept apart here.
Columns and labels:
[1] = test system: P. aeruginosa; test: microbe, parasite or virus in culture; settings: agent alone
Description: (§1) FICs are performed by checkerboard titrations of peptides in one dimension of a microtiter plate, and of antibiotics in the other dimension, for example. The FIC is calculated by looking at the impact of one antibiotic on the MIC of the other and vice versa. […] Preferably, an FIC of less than 0.5 is obtained for synergism. As used herein, FIC can be determined as follows: [formula]
(§2) Synergism is identified as an FIC of about ≦0.5.

[2] = test system: S. epidermis; settings: S. epidermis
Description: as §1
(§3) Briefly, cells were grown overnight at 37° C. in LB-S (Luria broth without any salt supplement) and diluted one in 10,000 in the same medium to give concentrations of about 10^4 to 10^5 CFU/ml. The broth dilutions were set up in a 96 well microtiter plate by putting 200 μl of LB-S containing the initial concentration of antibiotic or compound in column 1 and 100 μl of the same medium in columns 2-12. The compounds were diluted by taking 100 μl of broth from column 1 and mixing it with column 2, resulting in a one in two dilution. This was continued to column 10. Finally, 10 μl of bacteria were pipetted into columns 1-11, and the plates incubated overnight at 37° C. The next day the plates were scored for growth in the wells, and the MIC determined.

[3] = test system: P. aeruginosa
Description: as §1, §3

[4] = test system: Red Blood Cells; test: Red blood cell lysis; format: cell-based; settings: concentration lysing Red Blood Cells
[5] = test system: A. calcoaceticus; settings: agent alone
Description: as §1, §2

[6] = test system: E. cloacae; settings: agent alone
Description: as §1, §2

[7] = test system: Candida albicans; test: MIC, broth dilution in LB-S; format: cell-based
Description: as §1, §3

[8] = α helical content by CD spectra; format: physicochemical
Description: α Helical Content of Cationic Peptides by CD Spectra
The α helical content of the peptides were measured in buffer, liposomes and 20% Hexafluoroisopropanol (HFPIP). The liposomes constituted of POPC alone or POPC and POPC and 30% POPG (Table 7).

[9] = test system: X. maltophila; test: organism not typed; settings: agent alone
Description: as §1, §2

[10] = test system: A. calcoaceticus; test: MIC, broth dilution in LB-S; format: cell-based; settings: additional MICs
Description: (§4) The biological activity of the peptides can be determined by standard methods known to those of skill in the art, such as “minimal inhibitory concentration (MIC)” assay described in the present examples, whereby the lowest concentration at which no change in OD is observed for a given period of time is recorded as MIC. Alternatively, “fractional inhibitory concentration (FIC)” is also useful for determination of synergy between the peptides of the invention, or the peptides in combination with known antibiotics. FICs are performed by checkerboard titrations of peptides in one dimension of a microtiter plate, and of antibiotics in the other dimension, for example. The FIC is calculated by looking at the impact of one antibiotic on the MIC of the other and vice versa. […] Preferably, an FIC of less than 0.5 is obtained for synergism. As used herein, FIC can be determined as follows: [formula]
as §3

[11] = test system: E. coli; test: MIC, broth dilution in LB-S; format: cell-based
Description: as §4, §3

[12] = test system: X maltophilia; test: MIC, broth dilution in LB-S; format: cell-based; settings: additional MICs
Description: as §4, §3

[13] = test system: S. aureus; test: MIC, broth dilution in LB-S; format: cell-based
Description: as §4, §3

[14] = test system: E. cloacae; test: MIC, broth dilution in LB-S; format: cell-based; settings: additional MICs
Description: as §4, §3

[15] = test system: E. faecalis; test: MIC, broth dilution in LB-S; format: cell-based; settings: Table 1b, separate set of experiments
Description: as §4, §3

[16] = test system: K. pneumoniae; test: MIC, broth dilution in LB-S; format: cell-based; settings: additional MICs
Description: as §4, §3

[17] = test system: E. coli ML 35; test: Inner membrane permeabilization (ONPG hydrolysis by β-galactosidase); format: cell-based; settings: E. coli ML 35, ONPG
Description: Inner membrane permeability was determined by measurement in E. coli ML 35 of β-galactosidase activity using ONPG as a substrate. Normally ONPG cannot pass across the cytoplasmic membrane to permit hydrolysis by the cytoplasmic enzyme β-galactosidase. However, cationic peptides, by permeabilizing the inner membrane, unmasks this enzyme leading to color development as ONP is released. […] Addition of citrate increased the lag time before the peptides were able to permeabilize the membranes. When the experiments were executed in cation adjusted media (CAMHB), the lag time was increased up to 30 minutes.

[18] = test system: LPS; test: Dansyl polymyxin displacement assay; format: binding; settings: Dansyl polymyxin displacement from LPS
Description: In addition, the peptides of SEQ ID NO: 5-8 also bound effectively to LPS with high affinity based on Dansyl polymyxin displacement assays (Table 5).

Structure (SMILES): CC[C@H](C)[C@H](NC(=O)[C@H](CC(C)C)NC(=O)[C@H](C)NC(=O)[C@@H]1CCCN1C(=O)[C@H](CC(C)C)NC(=O)CNC(=O)[C@@H](NC(=O)[C@@H](NC(=O)[C@H](CC(C)C)NC(=O)[C@@H](NC(=O)[C@H](CCCCN)NC(=O)[C@H](CCCCN)NC(=O)[C@@H](NC(=O)[C@H](C)NC(=O)[C@@H](NC(=O)[C@@H](NC(=O)[C@H](CC(C)C)NC(=O)[C@H](CCCCN)NC(=O)[C@H](CCCCN)NC(=O)[C@@H](NC(=O)[C@H](Cc1ccccc1)NC(=O)[C@H](CO)NC(=O)[C@H](CCCCN)NC(=O)[C@H](Cc1c[nH]c2ccccc12)NC(=O)[C@@H](N)CCCCN)[C@@H](C)CC)[C@@H](C)O)[C@@H](C)O)C(C)C)C(C)C)[C@@H](C)O)[C@@H](C)O)C(=O)N[C@@H](CO)C(=O)O [MBI 29]
- MIC ([1]; P. aeruginosa isolate 23, strain ATCC 27853): 32 µg/mL and 64 µg/mL
- MIC ([1]; P. aeruginosa isolate 24, strain 34): 32 µg/mL and 16 µg/mL
- MIC ([1]; P. aeruginosa isolate 25, strain 923-1): 32 µg/mL and 64 µg/mL
- MIC ([1]; P. aeruginosa isolate 26, strain 3101): 32 µg/mL and 64 µg/mL
- MIC ([1]; P. aeruginosa isolate 29, strain 15545): 32 µg/mL and 64 µg/mL
- MIC ([1]; P. aeruginosa isolate 32, strain W2897-1): 32 µg/mL and 64 µg/mL
- MIC ([2]; Table 1a): 10 µg/mL
- MIC ([2]; Table 1b, separate set of experiments): 16 µg/mL
- MIC ([2]; Table 1b, separate set of experiments, listed as MBI 29^me): 8 µg/mL
- MIC ([3]; P. aeruginasa (H 103), additional MICs): 4 µg/mL
- MIC ([3]; P. aeruginosa (H187), Table 1a): 5 µg/mL
- MIC ([3]; P. aeruginosa (H187), Table 1b, separate set of experiments): 16 µg/mL
- MIC ([3]; P. aeruginosa (H187), Table 1b, separate set of experiments, listed as MBI 29^me): 8 µg/mL
- MIC P. aeruginosa (H187) ([3]; P. aeruginosa (H187), Table 6): 1.0 µg/mL
- RBC Lysis [4]: >55 µg/mL
- MIC ([5]; A. calcoaceticus isolate 1, strain ATCC 23055): 32 µg/mL and 64 µg/mL
- MIC ([5]; A. calcoaceticus isolate 7, strain 8222): 16 µg/mL and 32 µg/mL
- MIC ([5]; A. calcoaceticus isolate 8, strain 8223): 16 µg/mL and 32 µg/mL
- MIC ([5]; A. calcoaceticus isolate 9, strain 8224): 16 µg/mL and 32 µg/mL
- MIC ([5]; A. calcoaceticus isolate 10, strain 8225): 16 µg/mL and 32 µg/mL
- MIC ([5]; A. calcoaceticus isolate 11, strain 8226): 16 µg/mL and 32 µg/mL
- MIC ([6]; E. cloacae isolate 12, strain ATCC 13047): 32 µg/mL and 64 µg/mL
- MIC ([6]; E. cloacae isolate 14, strain 938-2): 32 µg/mL and 16 µg/mL
- MIC ([6]; E. cloacae isolate 15, strain B5546): 32 µg/mL
- MIC ([6]; E. cloacae isolate 17, strain R4148-2): 16 µg/mL and 32 µg/mL
- MIC ([6]; E. cloacae isolate 18, strain 3077): 32 µg/mL
- MIC ([6]; E. cloacae isolate 19, strain 3356): 32 µg/mL
- MIC ([7]; Candida albicans (CAN105), Table 1b, separate set of experiments): 32 µg/mL
- MIC ([7]; Candida alibicans (CAN105), Table 1a): 40 µg/mL
- % α helicity ([8]; 20% HFIP): 50%
- % α helicity ([8]; Buffer): 0%
- % α helicity ([8]; POPC Liposomes): 16%
- % α helicity ([8]; POPC/POPG Liposomes (30% POPG)): 8%
- MIC ([9]; X. maltophila isolate 35, strain 6): 32 µg/mL and 16 µg/mL
- MIC ([9]; X. maltophila isolate 36, strain 16): 32 µg/mL
- MIC ([9]; X. maltophila isolate 37, strain 3095): 64 µg/mL
- MIC ([9]; X. maltophila isolate 38, strain 7901): 64 µg/mL
- MIC ([9]; X. maltophila isolate 39, strain B3110.1): 32 µg/mL
- MIC ([9]; X. maltophila isolate 40, strain R1302-1): 32 µg/mL and 64 µg/mL
- MIC ([9]; X. maltophila isolate 41, strain R4230): 16 µg/mL and 32 µg/mL
- MIC ([9]; X. maltophila isolate 43, strain TF29-2): 16 µg/mL and 32 µg/mL
- MIC [10]: 4 µg/mL
- MIC ([11]; E. coli 0111:B4, additional MICs): 2 µg/mL
- MIC ([11]; E. coli (UB1005), Table 1a): 3 µg/mL
- MIC ([11]; E. coli (UB1005), Table 1b, separate set of experiments): 4 µg/mL
- MIC E. coli (UB 1005) ([11]; E. coli (UB 1005), Table 6): 0.5 µg/mL
- MIC ([11]; E. coli. Bort, additional MICs): 6 µg/mL
- MIC [12]: 3 µg/mL
- MIC ([13]; S. aureus (K 147), Table 1a): 20 µg/mL
- MIC ([13]; S. aureus (K147), Table 1b, separate set of experiments): 32 µg/mL
- MIC ([13]; S. aureus (K147), Table 1b, separate set of experiments, listed as MBI 29^me): 16 µg/mL
- MIC ([13]; S. aureus (SAP0017), Table 1a): 18 µg/mL
- MIC ([13]; S. aureus (SAP0017), Table 1b, separate set of experiments): 32 µg/mL
- MIC ([13]; S. aureus (SAP0017), Table 1b, separate set of experiments, listed as MBI 29^me): 16 µg/mL
- MIC [14]: 2 µg/mL
- MIC [15]: 32 µg/mL
- MIC ([15]; listed as MBI 29^me): ≧64
- MIC [16]: 16 µg/mL
- Lag Time [17]: 66 s
- Rate of Hydrolysis [17]: 0.21 ΔAU min^−1
- 1max [18]: 40%

Source: US6906035B2, “Antimicrobial cationic peptides” (priority 1995, dated 2005)
